The record followed here is ChEMBL document CHEMBL1126625, “7-Azetidinylquinolones as antibacterial agents. Synthesis and structure-activity relationships” (J Med Chem, 1993).

Converted amounts (≈) assume the structure as drawn.

What all share (type): functional
Experiment [1] deals with Staphylococcus epidermidis. As to the kind of experiment: Minimum inhibitory concentration (MIC) preventing growth of Staphylococcus epidermidis.
In experiment [2] the test system is Klebsiella pneumoniae. As to the kind of experiment: Minimum inhibitory concentration (MIC)preventing growth of Klebsiella pneumoniae.
For experiment [3], the system named is Bacillus subtilis. Kind of experiment: Minimum inhibitory concentration (MIC) preventing growth of Bacillus subtilis.
For experiment [4], the system named is Proteus vulgaris. Kind of experiment: Minimum inhibitory concentration (MIC) preventing growth of Proteus vulgaris.
The test system of experiment [5] is Enterobacter cloacae. As to the kind of experiment: Minimum inhibitory concentration (MIC)preventing growth of Enterobacter cloacae.
Experiment [6] has as its system Staphylococcus aureus. Kind of experiment: Minimum inhibitory concentration (MIC) preventing growth of […].
In experiment [7] the test system is Bacillus cereus. Kind of experiment: Minimum inhibitory concentration (MIC) preventing growth of Bacillus cereus.
The subject of experiment [8] is Pseudomonas aeruginosa. As to the kind of experiment: Minimum inhibitory concentration (MIC)preventing growth of Pseudomonas aeruginosa.
Experiment [9] concerns Morganella morganii. Kind of experiment: Minimum inhibitory concentration (MIC) preventing growth of Morganella morganii.
Experiment [10] has as its system Enterococcus faecalis. Kind of experiment: Minimum inhibitory concentration (MIC) preventing growth of Streptococcus faecalis ATCC 10541.
Experiment [11] has as its system Escherichia coli. As to the kind of experiment: Minimum inhibitory concentration (MIC)preventing growth of Escherichia coli.

For orientation: MIC means the smallest concentration in the dilution series that meets the test's criterion for growth inhibition. High values mean a less susceptible organism, low ones a more susceptible organism. As for `CC1(O)CN(c2c(F)cc3c(=O)c(C(=O)O)cn(C4CC4)c3c2F)C1`, the MIC in experiment [1] amounted to 0.25 µg/mL (≈ 0.714 µM); in experiment [2] it was 0.5 µg/mL (≈ 1.43 µM); in experiment [3], 0.015 µg/mL (≈ 0.0428 µM); in [4], 0.5 µg/mL (≈ 1.43 µM); in experiment [5] it was 0.5 µg/mL (≈ 1.43 µM); in [6], 0.25 µg/mL (≈ 0.714 µM). Moreover, the MIC amounted to 0.25 µg/mL (≈ 0.714 µM) in [7]; 4 µg/mL (≈ 11.4 µM) in [8]; 0.5 µg/mL (≈ 1.43 µM) in experiment [9]; 1 µg/mL (≈ 2.85 µM) in [10]; 0.5 µg/mL (≈ 1.43 µM) in [11].
For `O=C(O)c1cn(C2CC2)c2cc(N3CC(O)C3)c(F)cc2c1=O`, the MIC is 0.12 µg/mL (≈ 0.377 µM) in [1]; 0.12 µg/mL (≈ 0.377 µM) in experiment [2]; 0.015 µg/mL (≈ 0.0471 µM) in experiment [3]; 0.12 µg/mL (≈ 0.377 µM) in [4]; 0.12 µg/mL (≈ 0.377 µM) in experiment [5]; 0.12 µg/mL (≈ 0.377 µM) in experiment [6]. The MIC in experiment [7] was 0.12 µg/mL (≈ 0.377 µM); in [8] it was 2 µg/mL (≈ 6.28 µM); in experiment [9], 0.25 µg/mL (≈ 0.785 µM); in experiment [10] it was 1 µg/mL (≈ 3.14 µM); in experiment [11] it was 0.12 µg/mL (≈ 0.377 µM).
Take `CC1(N)CN(c2c(F)cc3c(=O)c(C(=O)O)cn(-c4ccc(F)cc4F)c3c2F)C1`: the MIC in experiment [1] worked out at 0.5 µg/mL (≈ 1.19 µM); in experiment [2], 0.5 µg/mL (≈ 1.19 µM); in [3], 0.25 µg/mL (≈ 0.593 µM); in experiment [4] it was 0.5 µg/mL (≈ 1.19 µM); in experiment [5], 0.25 µg/mL (≈ 0.593 µM); in experiment [6] it was 0.25 µg/mL (≈ 0.593 µM). The MIC in experiment [7] turned out to be 0.5 µg/mL (≈ 1.19 µM); in experiment [8], 2 µg/mL (≈ 4.75 µM); in experiment [9] it was 0.5 µg/mL (≈ 1.19 µM); in [10], 0.25 µg/mL (≈ 0.593 µM); in experiment [11] it was 0.25 µg/mL (≈ 0.593 µM).
Consider `CC(=O)OC1CN(c2c(F)cc3c(=O)c(C(=O)O)cn(C4CC4)c3c2F)C1`, for which the MIC in [1] was 0.12 µg/mL (≈ 0.317 µM); in [2] it was 0.015 µg/mL (≈ 0.0396 µM); in experiment [3] it was 0.015 µg/mL (≈ 0.0396 µM); in [4], 0.12 µg/mL (≈ 0.317 µM); in experiment [5], 0.12 µg/mL (≈ 0.317 µM); in [6], 0.12 µg/mL (≈ 0.317 µM). The MIC in [7] was 0.12 µg/mL (≈ 0.317 µM); in experiment [8] it was 2 µg/mL (≈ 5.29 µM); in experiment [9], 0.25 µg/mL (≈ 0.661 µM); in experiment [10], 2 µg/mL (≈ 5.29 µM); in [11] it was 0.12 µg/mL (≈ 0.317 µM).
For the molecule `CCNCC1(C)CN(c2cc3c(cc2F)c(=O)c(C(=O)O)cn3C2CC2)C1`, the MIC in experiment [1] stood at 0.5 µg/mL (≈ 1.34 µM); in experiment [2] it was 0.5 µg/mL (≈ 1.34 µM); in [3] it was 0.12 µg/mL (≈ 0.321 µM); in experiment [4] it was 0.25 µg/mL (≈ 0.669 µM); in experiment [5], 0.25 µg/mL (≈ 0.669 µM); in experiment [6] it was 0.25 µg/mL (≈ 0.669 µM). Moreover, the MIC in experiment [7] stood at 0.12 µg/mL (≈ 0.321 µM); in [8], 4 µg/mL (≈ 10.7 µM); in experiment [9], 0.5 µg/mL (≈ 1.34 µM); in experiment [10] it was 1 µg/mL (≈ 2.68 µM); in [11] it was 0.12 µg/mL (≈ 0.321 µM).
As to `CCC1(O)CN(c2cc3c(cc2F)c(=O)c(C(=O)O)cn3C2CC2)C1`, the MIC in experiment [1] was 0.12 µg/mL (≈ 0.346 µM); in [2], 0.12 µg/mL (≈ 0.346 µM); in [3], 0.015 µg/mL (≈ 0.0433 µM); in experiment [4], 0.25 µg/mL (≈ 0.722 µM); in experiment [5] it was 0.25 µg/mL (≈ 0.722 µM); in experiment [6] it was 0.12 µg/mL (≈ 0.346 µM). The MIC came to 1 µg/mL (≈ 2.89 µM) in experiment [7]; 2 µg/mL (≈ 5.77 µM) in experiment [8]; 0.5 µg/mL (≈ 1.44 µM) in experiment [9]; 1 µg/mL (≈ 2.89 µM) in [10]; 0.12 µg/mL (≈ 0.346 µM) in experiment [11].
With `CNC1(C)CN(c2nc3c(cc2F)c(=O)c(C(=O)O)cn3C(C)(C)C)C1`, the MIC came to 0.12 µg/mL (≈ 0.331 µM) in experiment [1]; 0.015 µg/mL (≈ 0.0414 µM) in experiment [2]; 0.015 µg/mL (≈ 0.0414 µM) in experiment [3]; 0.25 µg/mL (≈ 0.69 µM) in [4]; 0.12 µg/mL (≈ 0.331 µM) in experiment [5]; 0.12 µg/mL (≈ 0.331 µM) in [6]. For the same molecule, the MIC in experiment [7] was determined as 0.06 µg/mL (≈ 0.166 µM); in [8] it was 2 µg/mL (≈ 5.52 µM); in experiment [9] it was 0.25 µg/mL (≈ 0.69 µM); in experiment [10] it was 1 µg/mL (≈ 2.76 µM); in experiment [11], 0.06 µg/mL (≈ 0.166 µM).
Take `CC1(N)CN(c2cc3c(cc2F)c(=O)c2c(=O)[nH]sc2n3C2CC2)C1`: the MIC in [1] stood at 0.03 µg/mL (≈ 0.0832 µM); in experiment [2], 0.015 µg/mL (≈ 0.0416 µM); in [3], 0.015 µg/mL (≈ 0.0416 µM); in [4] it was 0.06 µg/mL (≈ 0.166 µM); in experiment [5], 0.015 µg/mL (≈ 0.0416 µM); in experiment [6], 0.06 µg/mL (≈ 0.166 µM). The MIC in [7] was determined as 0.03 µg/mL (≈ 0.0832 µM); in experiment [8], 0.25 µg/mL (≈ 0.694 µM); in experiment [9], 0.015 µg/mL (≈ 0.0416 µM); in experiment [10], 0.12 µg/mL (≈ 0.333 µM); in experiment [11], 0.015 µg/mL (≈ 0.0416 µM).
For the molecule `CC1(N)CN(c2nc3c(cc2F)c(=O)c(C(=O)O)cn3CCF)C1`, the MIC in [1] was determined as 0.5 µg/mL (≈ 1.48 µM); in experiment [2], 0.06 µg/mL (≈ 0.177 µM); in experiment [3], 0.12 µg/mL (≈ 0.355 µM); in experiment [4], 1 µg/mL (≈ 2.96 µM); in experiment [5], 0.12 µg/mL (≈ 0.355 µM); in experiment [6] it was 0.5 µg/mL (≈ 1.48 µM). Also, the MIC was determined as 0.5 µg/mL (≈ 1.48 µM) in experiment [7]; 2 µg/mL (≈ 5.91 µM) in experiment [8]; 0.12 µg/mL (≈ 0.355 µM) in experiment [9]; 2 µg/mL (≈ 5.91 µM) in [10]; 0.06 µg/mL (≈ 0.177 µM) in [11].
On to `CC1(CN)CN(c2c(F)cc3c(=O)c(C(=O)O)cn(C4CC4)c3c2F)C1`, for which the MIC was 0.5 µg/mL (≈ 1.38 µM) in [1]; 0.25 µg/mL (≈ 0.688 µM) in experiment [2]; 0.25 µg/mL (≈ 0.688 µM) in experiment [3]; 1 µg/mL (≈ 2.75 µM) in experiment [4]; 0.5 µg/mL (≈ 1.38 µM) in [5]; 1 µg/mL (≈ 2.75 µM) in [6]. For the same molecule, the minimal inhibitory concentration (MIC) amounted to 0.5 µg/mL (≈ 1.38 µM) in experiment [7]; 4 µg/mL (≈ 11 µM) in [8]; 3 µg/mL (≈ 8.26 µM) in [9]; 2 µg/mL (≈ 5.5 µM) in [10]; 0.5 µg/mL (≈ 1.38 µM) in experiment [11].
